The text below walks through data of ChEMBL document CHEMBL3507680, “University of Dundee, Gates Library screen for HepG2 cell viability”.

This data set in a line: Human HepG2 cell viability assay in 384 well format. Further details: dose 125 nL, time 70.5 hour; cytotoxicity at 70.5 h: concentration not given beside the values. The note with it: HepG2 cells, read-out: Inhibition. The class given is toxicity, cell-based.
For the molecule `Cc1ccccc1CSCCn1nc2ccccn2c1=O`, the cytotoxicity at 70.5 h is -9.36%.
On to `CN1C(=O)C2(NC(=O)c3ccccc3O2)c2ccccc21` (stereo not drawn), for which the cytotoxicity at 70.5 h was -16.5%.
The result for `Cc1n[nH]c(C(=O)NCc2ccnc(OCC(F)(F)F)c2)c1Br` reads -4.39%; that for `O=C(Nc1cccc(OCc2cccc(F)c2)c1)C1COCCO1` (stereo not drawn), -0.586%; that for `CNC(=O)c1cc2ccccc2n1C`, 16.4%.
As for `CN(C)S(=O)(=O)N1CCN(c2cc(-n3cccc3)ncn2)CC1`, the cytotoxicity at 70.5 h is -6%.
With `Cn1cc(C(=O)OC2CN(c3nc4c(C(F)(F)F)cccc4s3)C2)nn1`, the cytotoxicity at 70.5 h was 1.02%.
In the case of `CCOCC(=O)N1CCC(CSCc2ccco2)CC1` it was -10.8%.
In the case of `O=C(CN1C(=O)CCC1=O)N1CCC(CSCc2ccco2)CC1` it was -4.52%; in that of `O=C(c1ccc2[nH]cnc2c1)N1CCC(Oc2cccnc2)CC1`, -6.98%; in that of `CCCNC(=O)c1ccc2c(OC)n(C)nc2c1`, 0.507%.
In the case of `O=c1ccc2c([nH]1)CCN(S(=O)(=O)c1ccc3c(c1)OCCO3)C2` it was 1.39%; in that of `O=C(CN1C(=O)CCC1=O)N1CCOC2(CCOCC2)C1`, 29.6%; in that of `O=C(CN1C(=O)c2ccccc2C1=O)N1CCOC2(CCOCC2)C1`, 3.73%.
Regarding `CN(C)CC1CSCCCN1S(=O)(=O)Cc1cccc(F)c1` (stereo not drawn), the cytotoxicity at 70.5 h is -3.38%.
In the case of `COc1cccc(CC(=O)N2CCCSCC2CN2CCCC2)c1` (stereo not drawn), the cytotoxicity at 70.5 h was -3.04%.
In the case of `O=C(COc1ccc(Cl)cc1Cl)N1CCCSCC1CN1CCOCC1` (stereo not drawn) it was 0.222%.
The result for `Cc1cnc2n(c1=O)CC(C(=O)NCc1ccccc1Cl)CS2` (stereo not drawn) reads 2.42%; that for `Cc1ccc(Cl)cc1NC(=O)C1CSc2ncc(C)c(=O)n2C1` (stereo not drawn), -13.9%.
In the case of `CC(C)(C)c1cc(=O)n2c(n1)SCC(C(=O)NCc1ccccn1)C2` (stereo not drawn), the cytotoxicity at 70.5 h is -5.78%.
The result for `CC(C)(C)c1cc(=O)n2c(n1)SCC(C(=O)NCc1ccco1)C2` (stereo not drawn) reads 29.2%.
The result for `CCc1c(C)nc2n(c1=O)CC(C(=O)Nc1sccc1C(=O)OC)CS2` (stereo not drawn) reads -6.34%; that for `CN(C)c1ccc(C(O)CNS(=O)(=O)C2CC2)cc1` (stereo not drawn), 10.1%; that for `CCCc1nnsc1C(=O)NCC(O)c1ccc(SC)cc1` (stereo not drawn), 28.8%.
The result for `COCCN(Cc1ccoc1)C(=O)CSc1ccc(F)cc1` reads -5.61%; that for `COCCN(Cc1ccoc1)S(=O)(=O)c1ccc(F)c(Cl)c1`, 42.1%.
For `COCCN(Cc1ccoc1)S(=O)(=O)c1cccc(C(F)(F)F)c1`, the cytotoxicity at 70.5 h is -13.5%.
Regarding `CCOc1ccccc1C(=O)NCCC(O)c1ccoc1` (stereo not drawn), the cytotoxicity at 70.5 h was found to be 9.07%.
In the case of `O=C(COc1ccccc1F)NCCC(O)c1ccoc1` (stereo not drawn) it was -4.07%.
In the case of `CCc1ccc(S(=O)(=O)NCCC(O)c2ccoc2)s1` (stereo not drawn) it was -10.1%; in that of `COc1ccc(S(=O)(=O)NCCC(O)c2ccoc2)c(C)c1` (stereo not drawn), -5.52%.
The result for `Cc1cc(C(O)CCNC(=O)c2ccc(Cl)s2)c(C)o1` (stereo not drawn) reads -8.23%; that for `COc1ccc(S(=O)(=O)NCCC(O)c2cc(C)oc2C)c(C)c1` (stereo not drawn), -5.42%; that for `COC1(CNC(=O)c2cccc(C#N)c2)CCSC1` (stereo not drawn), 42.8%.
For `COC1(CNC(=O)NCCc2ccccc2)CCSC1` (stereo not drawn), the cytotoxicity at 70.5 h was found to be 15.9%.
In the case of `COc1ncccc1C(=O)Nc1ccccc1-c1ccc(=O)n(C)n1` it was 3.64%; in that of `COCC(=O)Nc1ccccc1-c1ccc(=O)n(C)n1`, -4.15%; in that of `COc1ccc(C(=O)Nc2ccccc2-c2ccc(=O)n(C)n2)nn1`, 1.94%.
In the case of `Cc1cccc(NC(=O)c2ccc(-n3cncn3)nn2)n1` it was -1.44%.
In the case of `O=C(NCCn1nc(-n2cncn2)ccc1=O)c1ccc(F)cc1F` it was -5.23%.
`CCSc1ccccc1C(=O)NCCn1nc(-n2cncn2)ccc1=O`: the cytotoxicity at 70.5 h was -10.2%.
The result for `Cc1csc(C(=O)N2CCC(S(C)(=O)=O)C2)c1` (stereo not drawn) reads -3.26%.
In the case of `O=C(c1ccccn1)N1CCC(S(=O)(=O)c2ccccc2)C1` (stereo not drawn) it was -9.33%; in that of `Cc1csc(C(=O)N2CCC(S(C)(=O)=O)CC2)c1`, -5.62%.
In the case of `O=S(=O)(CC1CCCN1S(=O)(=O)c1cccnc1)c1ccccc1` (stereo not drawn) it was -8.38%; in that of `Cc1nn(C)c(C)c1S(=O)(=O)NCC(C)(O)c1ccc2c(c1)OCO2` (stereo not drawn), -1.59%; in that of `Cn1cnc(S(=O)(=O)NCC2(O)CCc3ccccc32)c1` (stereo not drawn), 9.61%.
Regarding `Cn1cnc(S(=O)(=O)NCC2CCN(C(=O)Oc3ccccc3)CC2)c1`, the cytotoxicity at 70.5 h came to 0.307%.
For `O=c1[nH]c2cc(S(=O)(=O)N3CCC(c4ccsc4)CC3)ccc2o1`, the cytotoxicity at 70.5 h is -5%.
On to `Cn1cc(C(=O)Nc2ccc(CC(=O)NC3CC3)cc2)nn1`, for which the cytotoxicity at 70.5 h is -6.27%.
Turning to `Cn1cc(S(=O)(=O)NCc2ccsc2)cn1`, the cytotoxicity at 70.5 h was found to be 13.8%.
Regarding `Cn1cc(S(=O)(=O)NCC2CCN(C(=O)Oc3ccccc3)CC2)cn1`, the cytotoxicity at 70.5 h is 2.31%.
In the case of `COc1ccc(CC(=O)Nc2c(C)nc(N3CCCC3)nc2C)cc1`, the cytotoxicity at 70.5 h is -2.54%.
In the case of `Cc1nc(N2CCCC2)nc(C)c1NC(=O)c1ccco1` it was -1.46%.
In the case of `Cc1nc(N2CCOCC2)nc(C)c1NC(=O)c1ccco1` it was 3.55%; in that of `Cc1nc(N(C)C)nc(C)c1NS(=O)(=O)c1ccc(OC(F)(F)F)cc1`, -6.13%; in that of `Cc1cc(N2CCCC2)nc(CNS(=O)(=O)Cc2ccccc2)n1`, -7.92%.
In the case of `CC(=O)N1CCN(c2cc(N(C)C)cnn2)CC1` it was -3.71%.
For `CN(C)c1cnnc(N2CCN(C(=O)CCC3CCCCC3)CC2)c1`, the cytotoxicity at 70.5 h is -7.83%.
Consider `CN(C)c1cnnc(N2CCN(C(=O)Cc3ccccc3)CC2)c1`, for which the cytotoxicity at 70.5 h was -8%.
As to `CC(=O)N1CCN(c2cnnc(N3CCCC3)c2)CC1`, the cytotoxicity at 70.5 h is -1.26%.
The result for `CS(=O)(=O)N1CCN(c2cnnc(N3CCCC3)c2)CC1` reads -12.9%; that for `CC(=O)N1CCN(c2cc(N3CCOCC3)cnn2)CC1`, 6.14%.
With `CCOc1ncc(NC(=O)c2ccccn2)c(OCC)n1`, the cytotoxicity at 70.5 h is -13.3%.
The result for `CCCS(=O)(=O)NCCn1ccc(-c2cccs2)n1` reads 25.9%; that for `Cc1nnsc1C(=O)NCc1nn(C2CCCC2)c2c1CCCC2`, -5.38%.
Turning to `Cn1nc(CNC(=O)c2ccc(OC(F)(F)F)cc2)c2c1CCOC2`, the cytotoxicity at 70.5 h came out at 2.03%.
The result for `Cc1ccc(N2CCc3sc(C(=O)N4CCOCC4)cc32)nn1` reads 2.34%; that for `COCCn1cc2c(n1)C(CNS(C)(=O)=O)OCC2` (stereo not drawn), -2.51%; that for `O=C(Nc1ccccc1)C1=NOC2(CCCN(C(=O)N3CCCC3)C2)C1` (stereo not drawn), -0.586%.
The result for `CCOCc1ncn2c1CN(C(=O)Nc1ccc(CC)cc1)CC2` reads 14.1%; that for `Cc1cccc(NC(=O)N2CCn3cnc(COCC4CC4)c3C2)c1`, -13.2%; that for `CCOCc1ncn2c1CN(C(=O)Nc1cccc(F)c1)CC2`, -13.3%.
In the case of `Cc1nc(N(C)C)nc2c1COCC21CCN(C(=O)C2CC2)C1` (stereo not drawn) it was -3.72%; in that of `CN(C)c1ncc(-c2cc(C(=O)NC(C)(C)CO)n(CC3CC3)c2)cn1`, -12.5%; in that of `CCOCC1CN(Cc2ccc3c(c2)OCO3)Cc2ncn(C)c21` (stereo not drawn), -10.5%.
Consider `CO[C@@H]1CCN(c2ncc(F)cn2)[C@H]1Cc1cnn(C)c1`, for which the cytotoxicity at 70.5 h was -11.6%.
For `CNC(=O)CN1CC[C@H]2CN(C(=O)c3cc[nH]n3)C[C@H]2C1`, the cytotoxicity at 70.5 h was -8.85%.
In the case of `Cc1cccc(CN2CC3(CCN(C(=O)N(C)C)CC3)OCC2=O)n1` it was -0.965%.
Take `O=C(NCC1CCOCC1)[C@H]1C[C@@H]2CCN(c3nncs3)C[C@@H]2O1`: the cytotoxicity at 70.5 h was -9.76%.
In the case of `COCCNC(=O)[C@H]1C[C@@H]2CCN(c3ccccc3)C[C@H]2O1` it was -9.93%; in that of `O=C(NC1CC1)[C@@H]1CCO[C@@H]2CCN(CCc3ccccc3)C[C@@H]21`, -6.53%; in that of `Cn1cc(CN2CCC(F)(F)C3(CCN(c4ncc(F)cn4)C3)C2)cn1` (stereo not drawn), -13.8%.
The result for `O=C([C@@H]1CCO[C@@H]2CCN(CCc3ccccc3)C[C@@H]21)N1CCCC1` reads 15.3%; that for `Cn1cc(CN2C[C@H]3CCC[C@@H](CNc4ncccn4)[C@H]3C2)cn1`, -3.23%; that for `Cn1ccnc1NC[C@@H]1CCC[C@@H]2CN(Cc3cccnc3)C[C@@H]21`, 14.5%.
As to `c1ccc(NC[C@@H]2CCC[C@@H]3CN(Cc4cccnc4)C[C@@H]32)nc1`, the cytotoxicity at 70.5 h was -5.9%.
The result for `CS(=O)(=O)N1CCO[C@H]2[C@@H](Oc3ncccc3F)CC[C@@H]21` reads -5.41%; that for `O=C([C@H]1CC[C@@H]2[C@@H](CCN2Cc2nccs2)O1)N1CCOCC1`, -5.21%.
The result for `O=C(NCC1CCOCC1)[C@@H]1C[C@@H]2[C@@H](CCN2Cc2nccs2)O1` reads -12.1%; that for `c1cncc(C2COC3(CCN(Cc4nccs4)CC3)C2)c1` (stereo not drawn), -9.69%.
In the case of `Cn1cc2c(n1)C(CNCc1ccco1)OCC2` (stereo not drawn) it was 19.8%.
Turning to `COCC1CC2(CCN(Cc3ccc(C)o3)CC2)CN1C(C)C` (stereo not drawn), the cytotoxicity at 70.5 h was -3.1%.
In the case of `COCC1CN(Cc2ccc3c(c2)OCO3)Cc2ncn(C)c21` (stereo not drawn) it was -12.8%.
The result for `COCCN1CCn2c(CN(C)C(C)C)cnc2C1` reads -7.59%; that for `CCN1CCn2c(C)cnc2C12CCN(C(=O)c1ccco1)CC2`, -4.85%; that for `CN1CCN(Cc2cnc3n2CCN(CCc2ccccc2)C3)CC1`, 19.5%.
In the case of `CN1C(Cn2cccn2)C[C@@H]2CN(Cc3ccccn3)CC[C@@H]21` (stereo partly drawn) it was -10.5%.
